According to US8084479B2, “Thiazole compounds and methods of use” (Amgen Inc., priority 2006, dated 2011):

Molecular target: PKBα (Homo sapiens, UniProt P31749)
Test: PKB kinase assay (P33-labeled ATP, peptide substrate, filter plate)
Type: biochemical
Settings: PKBα enzyme (full length or kinase domain with pleckstrin domain deleted)
Description: The kinase assay for evaluating PKB activity comprises active PKB enzymes, a PKB specific substrate, and P^33-labeled ATP. […] The phosphorylated substrate was captured by a phosphocellulose membrane filter plate (MLLIPORE) and measured by a Wallac Microbeta liquid scintillation counter (Perkin Elmer).

Sequence of PKBα (P31749 118-480 limits assumed): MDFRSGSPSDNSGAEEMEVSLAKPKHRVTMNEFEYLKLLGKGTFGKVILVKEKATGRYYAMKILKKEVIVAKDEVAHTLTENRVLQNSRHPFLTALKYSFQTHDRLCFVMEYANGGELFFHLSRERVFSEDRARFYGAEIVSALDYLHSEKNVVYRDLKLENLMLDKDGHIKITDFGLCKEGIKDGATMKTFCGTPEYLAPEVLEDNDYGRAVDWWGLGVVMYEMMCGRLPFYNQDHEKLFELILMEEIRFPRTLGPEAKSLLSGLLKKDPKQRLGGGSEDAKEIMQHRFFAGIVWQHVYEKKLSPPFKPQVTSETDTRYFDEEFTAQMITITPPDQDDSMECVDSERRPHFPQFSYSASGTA

Row | SMILES | IC50 [µM]
1 | N[C@H](CNc1nc(C(F)(F)CO)c(-c2ccc3cnccc3c2)s1)Cc1ccc(C(F)(F)F)cc1 [Example 134, 2-(2-((S)-2-Amino-3-(4-(trifluoromethyl)phenyl)-propylamino)-5-(isoquinolin-6-yl)thiazol-4-yl)-2,2-difluoroethanol] | 0.05 to 1
2 | N[C@H](CNc1nc(C(F)(F)CO)c(-c2ccc3[nH]c(=O)oc3c2)s1)Cc1ccc(C(F)(F)F)cc1 [Example 135, 6-(2-((S)-2-Amino-3-(4-(trifluoromethyl)phenyl)-propylamino)-4-(1,1-difluoro-2-hydroxyethyl)thiazol-5-yl)benzo[d]oxazol-2(3H)-one] | 1 to 10
3 | Cn1c(=O)[nH]c2ccc(-c3sc(NC[C@@H](N)Cc4ccc(C(F)(F)F)cc4)nc3C(F)(F)CO)cc21 [Example 136, 6-(2-((S)-2-Amino-3-(4-(trifluoromethyl)phenyl)propylamino)-4-(1,1-difluoro-2-hydroxyethyl)thiazol-5-yl)-1-methyl-1H-benzo[d]imidazol-2(3H)-one] | 1 to 10
4 | N[C@@H](CNc1ncc(-c2ccc3c(c2)CC(=O)N3)s1)Cc1ccc(C(F)(F)F)cc1 [Example 137, 5-(2-((R)-2-Amino-3-(4-(trifluoromethyl)phenyl)propylamino)thiazol-5-1)indolin-2-one] | 0.05 to 1
5 | CNc1cc2cc(-c3cnc(NC[C@@H](N)Cc4ccc(C(F)(F)F)cc4)s3)ccc2cn1 [Example 138, 6-(2-((S)-2-amino-3-(4-(trifluoromethyl)phenyl)propylamino)thiazol-5-yl)-N-methylisoquinolin-3-amine] | < 0.05
6 | CNc1cc2cc(-c3cnc(NC[C@@H](N)Cc4ccc(Cl)cc4)s3)ccc2cn1 [Example 139, 6-(2-((S)-2-amino-3-(4-chlorophenyl)propylamino)thiazol-5-yl)-N-methylisoquinolin-3-amine] | < 0.05
7 | N[C@H](CNc1nc(C#CCO)c(-c2ccc3cnccc3c2)s1)Cc1ccc(C(F)(F)F)cc1 [Example 140, 3-(2-((S)-2-amino-3-(4-(trifluoromethyl)phenyl)propylamino)-5-(isoquinolin-6-yl)thiazol-4-yl)prop-2-yn-1-ol] | < 0.05
8 | CC(O)C#Cc1nc(NC[C@@H](N)Cc2ccc(C(F)(F)F)cc2)sc1-c1ccc2cnccc2c1 (stereo partly drawn) [Example 141, 4-(2-((S)-2-amino-3-(4-(trifluoromethyl)phenyl)propylamino)-5-(isoquinolin-6-yl)thiazol-4-yl)but-3-yn-2-ol] | < 0.05
9 | N[C@H](CNc1nc(C#CC2(O)CCC2)c(-c2ccc3cnccc3c2)s1)Cc1ccc(C(F)(F)F)cc1 [Example 142, 1-(2-(2-((S)-2-amino-3-(4-(trifluoromethyl)phenyl)propylamino)-5-(isoquinolin-6-yl)thiazol-4-yl)ethynyl)cyclobutanol] | 0.05 to 1
10 | CC#Cc1nc(NC[C@@H](N)Cc2ccc(C(F)(F)F)cc2)sc1-c1ccc2cnccc2c1 [Example 143, N—((S)-2-amino-3-(4-(trifluoromethyl)phenyl)propyl)-5-(isoquinolin-6-yl)-4-(prop-1-ynyl)thiazol-2-amine] | < 0.05
11 | CC(O)C#Cc1nc(NC[C@@H](N)Cc2ccc(C(F)(F)F)cc2)sc1-c1ccc2c(c1)CC(=O)N2 (stereo partly drawn) [Example 144, 5-(2-((S)-2-amino-3-(4-(trifluoromethyl)phenyl)propylamino)-4-(3-hydroxybut-1-ynyl)thiazol-5-yl)indolin-2-one] | < 0.05
12 | N[C@H](CNc1nc(C#CCO)c(-c2ccc3c(c2)CC(=O)N3)s1)Cc1ccc(C(F)(F)F)cc1 [Example 145, 5-(2-((S)-2-amino-3-(4-(trifluoromethyl)phenyl)propylamino)-4-(3-hydroxyprop-1-ynyl)thiazol-5-yl)indolin-2-one] | < 0.05
13 | COCC#Cc1nc(NC[C@@H](N)Cc2ccc(C(F)(F)F)cc2)sc1-c1ccc2cnccc2c1 [Example 146, N—((S)-2-amino-3-(4-(trifluoromethyl)phenyl)propyl)-5-(isoquinolin-6-yl)-4-(3-methoxyprop-1-ynyl)thiazol-2-amine] | 0.05 to 1
14 | N[C@H](CNc1nc(C#CC2=CCCC2)c(-c2ccc3cnccc3c2)s1)Cc1ccc(C(F)(F)F)cc1 [Example 147, N—((S)-2-amino-3-(4-(trifluoromethyl)phenyl)propyl)-4-(2-cyclopentenylethynyl)-5-(isoquinolin-6-yl)thiazol-2-amine] | 1 to 10

Now from value to compound:

Row | IC50 [µM] | SMILES
15 | 0.05 to 1 | N[C@H](CNc1nc(C#CC2(O)CCCC2)c(-c2ccc3cnccc3c2)s1)Cc1ccc(C(F)(F)F)cc1 [Example 148, 1-(2-(2-((S)-2-amino-3-(4-(trifluoromethyl)phenyl)propylamino)-5-(isoquinolin-6-yl)thiazol-4-yl)ethynyl)cyclopentanol]
16 | < 0.05 | Cc1n[nH]c2ccc(-c3sc(NC[C@@H](N)Cc4ccc(C(F)(F)F)cc4)nc3C#CCO)cc12 [Example 149, 3-(2-((S)-2-amino-3-(4-(trifluoromethyl)phenyl)propylamino)-5-(3-methyl-1H-indazol-5-yl)thiazol-4-yl)prop-2-yn-1-ol]
17 | < 0.05 | N[C@H](CNc1nc(C#CCO)c(-c2ccc3[nH]c(=O)oc3c2)s1)Cc1ccc(C(F)(F)F)cc1 [Example 150, 6-(2-((S)-2-amino-3-(4-(trifluoromethyl)phenyl)propylamino)-4-(3-hydroxyprop-1-ynyl)thiazol-5-yl)benzo[d]oxazol-2(3H)-one]
18 | 1 to 10 | CS(=O)(=O)NCC#Cc1nc(NC[C@@H](N)Cc2ccc(C(F)(F)F)cc2)sc1-c1ccc2cnccc2c1 [Example 151, N-(3-(2-((S)-2-amino-3-(4-(trifluoromethyl)phenyl)propylamino)-5-(isoquinolin-6-yl)thiazol-4-yl)prop-2-ynyl)methanesulfonamide]
19 | < 0.05 | CC#Cc1nc(NC[C@@H](N)Cc2ccc(C(F)(F)F)cc2)sc1-c1ccc2c(c1)CC(=O)N2 [Example 152, 5-(2-((S)-2-amino-3-(4-(trifluoromethyl)phenyl)propylamino)-4-(prop-1-ynyl)thiazol-5-yl)indolin-2-one]
20 | < 0.05 | CC#Cc1nc(NC[C@@H](N)Cc2ccc(C(F)(F)F)cc2)sc1-c1ccc2[nH]nc(C)c2c1 [Example 153, N—((S)-2-amino-3-(4-(trifluoromethyl)phenyl)propyl)-5-(3-methyl-1H-indazol-5-yl)-4-(prop-1-ynyl)thiazol-2-amine]
21 | < 0.05 | C/C=C/[C@@H](c1ccc(C(F)(F)F)cc1)[C@H](N)CNc1ncc(-c2ccc3cnccc3c2)s1 [Example 154, N-((2S,3S,E)-2-amino-3-(4-(trifluoromethyl)phenyl)hex-4-enyl)-5-(isoquinolin-6-yl)thiazol-2-amine]
22 | < 0.05 | C/C=C/[C@@H](c1ccc(C(F)(F)F)cc1)[C@H](N)CNc1ncc(-c2ccc3c(c2)CC(=O)N3)s1 [Example 155, 5-(2-((2S,3S,E)-2-amino-3-(4-(trifluoromethyl)phenyl)hex-4-enylamino)thiazol-5-yl)indolin-2-one]
23 | 0.05 to 1 | CCC[C@@H](c1ccc(C(F)(F)F)cc1)[C@H](N)CNc1ncc(-c2ccc3c(c2)CC(=O)N3)s1 [Example 156, 5-(2-((2S,3S)-2-amino-3-(4-(trifluoromethyl)phenyl)hexylamino)thiazol-5-yl)indolin-2-one]
24 | < 0.05 | CCC[C@@H](c1ccc(C(F)(F)F)cc1)[C@H](N)CNc1ncc(-c2ccc3cnccc3c2)s1 [Example 157, N-((2S,3S)-2-amino-3-(4-(trifluoromethyl)phenyl)hexyl)-5-(isoquinolin-6-yl)thiazol-2-amine]
